Measurements as given in patent publication US20190345150A1, “MICROBIOCIDAL OXADIAZOLE DERIVATIVES” (SYNGENTA PARTICIPATIONS AG, priority 2016, published 2019).
Where “and” joins values, the source holds several entries; their conditions need not be identical. Equal values may be shown once.

Columns and labels:
[1] = tested on: Puccinia recondita f. Sp. Tritici; assay: Puccinia recondita f. sp. tritici / wheat / leaf disc preventative (brown rust); format: in vivo; conditions: foliar, 200 ppm in the applied formulation, wheat leaf segments cv. Kanzler, preventative (inoculated 1 day after application), compared to untreated control, read-out: disease control
Method: Leaf disks or leaf segments of various plant species are cut from plants grown in a greenhouse. The cut leaf disks or segments are placed in multiwell plates (24-well format) onto water agar. The leaf disks are sprayed with a test solution before (preventative) or after (curative) inoculation. Compounds to be tested are prepared as DMSO solutions (max. 10 mg/ml) which are diluted to the appropriate concentration with 0.025% Tween20 just before spraying. The inoculated leaf disks or segments are incubated under defined conditions (temperature, relative humidity, light, etc.) according to the respective test system. A single evaluation of disease level is carried out 3 to 14 days after inoculation, depending on the pathosystem. Percent disease control relative to the untreated check leaf disks or segments is then calculated. Wheat leaf segments cv. Kanzler were placed on agar in multiwell plates (24-well format) and sprayed with the formulated test compound diluted in water. The leaf disks were inoculated with a spore suspension of the fungus 1 day after application. The inoculated leaf segments were incubated at 19° C. and 75% relative humidity (rh) under a light regime of 12 hours light/12 hours darkness in a climate cabinet and the activity of a compound was assessed as percent disease control compared to untreated when an appropriate level of disease damage appears in untreated check leaf segments (7 to 9 days after application).

[2] = tested on: Glomerella laqenarium (Colletotrichum laqenarium); assay: Glomerella lagenarium liquid culture / cucumber / preventative (anthracnose); format: cell-based; conditions: 20 ppm in the applied formulation, liquid culture in PDB, growth inhibition measured photometrically 3 to 4 days after application, compared to untreated control, read-out: disease control
Method: Mycelia fragments or conidia suspensions of a fungus prepared either freshly from liquid cultures of the fungus or from cryogenic storage, are directly mixed into nutrient broth. DMSO solutions of the test compound (max. 10 mg/ml) are diluted with 0.025% Tween20 by a factor of 50 and 10 μl of this solution is pipetted into a microtiter plate (96-well format). The nutrient broth containing the fungal spores/mycelia fragments is then added to give an end concentration of the tested compound. The test plates are incubated in the dark at 24° C. and 96% relative humidity. The inhibition of fungal growth is determined photometrically after 2 to 7 days, depending on the pathosystem, and percent antifungal activity relative to the untreated check is calculated. Conidia of the fungus from cryogenic storage are directly mixed into nutrient broth (PDB—potato dextrose broth). After placing a (DMSO) solution of test compound into a microtiter plate (96-well format), the nutrient broth containing the fungal spores is added. The test plates are incubated at 24° C. and the inhibition of growth is measured photometrically 3 to 4 days after application.

Phakopsora pachyrhizi = Phakopsora pachyrhizi / soybean / leaf disc preventative (Asian soybean rust); format: in vivo; conditions: foliar, 200 ppm in the applied formulation, soybean leaf disks, preventative (inoculated 1 day after application), compared to untreated control, read-out: disease control
Method: Leaf disks or leaf segments of various plant species are cut from plants grown in a greenhouse. The cut leaf disks or segments are placed in multiwell plates (24-well format) onto water agar. The leaf disks are sprayed with a test solution before (preventative) or after (curative) inoculation. Compounds to be tested are prepared as DMSO solutions (max. 10 mg/ml) which are diluted to the appropriate concentration with 0.025% Tween20 just before spraying. The inoculated leaf disks or segments are incubated under defined conditions (temperature, relative humidity, light, etc.) according to the respective test system. A single evaluation of disease level is carried out 3 to 14 days after inoculation, depending on the pathosystem. Percent disease control relative to the untreated check leaf disks or segments is then calculated. Soybean leaf disks are placed on water agar in multiwell plates (24-well format) and sprayed with the formulated test compound diluted in water. One day after application leaf discs are inoculated by spraying a spore suspension on the lower leaf surface. After an incubation period in a climate cabinet of 24-36 hours in darkness at 20° C. and 75% rh leaf disc are kept at 20° C. with 12 h light/day and 75% rh. The activity of a compound is assessed as percent disease control compared to untreated when an appropriate level of disease damage appears in untreated check leaf disks (12 to 14 days after application).

[3] = tested on: Puccinia recondita f. Sp. Tritici; assay: Puccinia recondita f. sp. tritici / wheat / leaf disc curative (brown rust); format: in vivo; conditions: foliar, 24 h, 200 ppm in the applied formulation, wheat leaf segments cv. Kanzler, curative (applied 1 day after inoculation), compared to untreated control, read-out: disease control
Method: Leaf disks or leaf segments of various plant species are cut from plants grown in a greenhouse. The cut leaf disks or segments are placed in multiwell plates (24-well format) onto water agar. The leaf disks are sprayed with a test solution before (preventative) or after (curative) inoculation. Compounds to be tested are prepared as DMSO solutions (max. 10 mg/ml) which are diluted to the appropriate concentration with 0.025% Tween20 just before spraying. The inoculated leaf disks or segments are incubated under defined conditions (temperature, relative humidity, light, etc.) according to the respective test system. A single evaluation of disease level is carried out 3 to 14 days after inoculation, depending on the pathosystem. Percent disease control relative to the untreated check leaf disks or segments is then calculated. Wheat leaf segments cv. Kanzler are placed on agar in multiwell plates (24-well format). The leaf segments are then inoculated with a spore suspension of the fungus. Plates were stored in darkness at 19° C. and 75% relative humidity. The formulated test compound diluted in water was applied 1 day after inoculation. The leaf segments were incubated at 19° C. and 75% relative humidity under a light regime of 12 hours light/12 hours darkness in a climate cabinet and the activity of a compound was assessed as percent disease control compared to untreated when an appropriate level of disease damage appears in untreated check leaf segments (6 to 8 days after application).

`CC1(C)CON=C1OCc1ccc(-c2noc(C(F)(F)F)n2)cc1` [Compound 1.1, 3-[4-[(4,4-dimethyl-5H-isoxazol-3-yl)oxymethyl]phenyl]-5-(trifluoromethyl)-1,2,4-oxadiazole] gave a pest or weed control at 200 ppm [1] of at least 80%, an inhibition of growth at 20 ppm [2] of at least 80% and a pest or weed control at 200 ppm (Phakopsora pachyrhizi) of at least 80%. For the same molecule, the melting point was 50.2 to 51.8 °C and the pest or weed control at 200 ppm [3] was at least 80%.
Molecule `FC(F)(F)c1nc(-c2ccc(COC3=NOCC3)cc2)no1` [Compound 1.2, 3-[4-(4,5-dihydroisoxazol-3-yloxymethyl)phenyl]-5-(trifluoromethyl)-1,2,4-oxadiazole] has a pest or weed control at 200 ppm [1] of at least 80%, an inhibition of growth at 20 ppm [2] of at least 80% and a pest or weed control at 200 ppm (Phakopsora pachyrhizi) of at least 80%. For the same molecule, the melting point was 97 to 101 °C and 97 to 100.9 °C and the pest or weed control at 200 ppm [3] was at least 80%.
`CC1(C)CC(OCc2ccc(-c3noc(C(F)(F)F)n3)cc2)=NO1` [Compound 1.3, 3-[4-[(5,5-dimethyl-4H-isoxazol-3-yl)oxymethyl]phenyl]-5-(trifluoromethyl)-1,2,4-oxadiazole] gave an inhibition of growth at 20 ppm [2] of at least 80%, a pest or weed control at 200 ppm (Phakopsora pachyrhizi) of at least 80% and a melting point of 107.9 to 108.6 °C.
Work on `FC(F)(F)c1nc(-c2ccc(COc3ccon3)cc2)no1` [Compound 1.4, 3-[4-(isoxazol-3-yloxymethyl)phenyl]-5-(trifluoromethyl)-1,2,4-oxadiazole] yielded a pest or weed control at 200 ppm [1] of at least 80%, an inhibition of growth at 20 ppm [2] of at least 80% and a pest or weed control at 200 ppm (Phakopsora pachyrhizi) of at least 80%. For the same molecule, the melting point was 61.8 to 64.4 °C and the pest or weed control at 200 ppm [3] was at least 80%.
With `Cc1cc(OCc2ccc(-c3noc(C(F)(F)F)n3)cc2)no1` [Compound 1.5, 3-[4-[(5-methylisoxazol-3-yl)oxymethyl]phenyl]-5-(trifluoromethyl)-1,2,4-oxadiazole] the pest or weed control at 200 ppm [1] was at least 80%, the inhibition of growth at 20 ppm [2] was at least 80% and the pest or weed control at 200 ppm (Phakopsora pachyrhizi) was at least 80%. It also gave a melting point of 81.2 to 82.6 °C and a pest or weed control at 200 ppm [3] of at least 80%.
Work on `Cn1nnnc1OCc1ccc(-c2noc(C(F)(F)F)n2)cc1` [Compound 1.8, 3-[4-[(1-methyltetrazol-5-yl)oxymethyl]phenyl]-5-(trifluoromethyl)-1,2,4-oxadiazole] yielded a pest or weed control at 200 ppm [1] of at least 80%, an inhibition of growth at 20 ppm [2] of at least 80% and a pest or weed control at 200 ppm (Phakopsora pachyrhizi) of at least 80%. The melting point was 113.3 to 114.2 °C and the pest or weed control at 200 ppm [3] was at least 80%.
Molecule `Fc1cc(COC2=NOCC2)ccc1-c1noc(C(F)(F)F)n1` [Compound 1.13, 3-[4-(4,5-dihydroisoxazol-3-yloxymethyl)-2-fluoro-phenyl]-5-(trifluoromethyl)-1,2,4-oxadiazole] has a pest or weed control at 200 ppm [1] of at least 80%, an inhibition of growth at 20 ppm [2] of at least 80% and a pest or weed control at 200 ppm (Phakopsora pachyrhizi) of at least 80%. For the same molecule, the pest or weed control at 200 ppm [3] was at least 80%.
For `Fc1ccc(OCc2ccc(-c3noc(C(F)(F)F)n3)cc2)nc1` [Compound 1.16, 3-[4-[(5-fluoro-2-pyridyl)oxymethyl]phenyl]-5-(trifluoromethyl)-1,2,4-oxadiazole], the pest or weed control at 200 ppm (Phakopsora pachyrhizi) was at least 80% and the melting point was 84 to 86 °C.
In the case of `CON=COCc1ccc(-c2noc(C(F)(F)F)n2)cc1` [Compound 1.23, [4-[5-(trifluoromethyl)-1,2,4-oxadiazol-3-yl]phenyl]methyl N-methoxymethanimidate], the pest or weed control at 200 ppm [1] is reported as at least 80%, the inhibition of growth at 20 ppm [2] is reported as at least 80% and the pest or weed control at 200 ppm (Phakopsora pachyrhizi) is reported as at least 80%. It also gave a pest or weed control at 200 ppm [3] of at least 80%.
`O=C(NC1CC1)OCc1ccc(-c2noc(C(F)(F)F)n2)cc1` [Compound 3.2, [4-[5-(trifluoromethyl)-1,2,4-oxadiazol-3-yl]phenyl]methyl N-cyclopropylcarbamate] gave a pest or weed control at 200 ppm [1] of at least 80%, an inhibition of growth at 20 ppm [2] of at least 80% and a pest or weed control at 200 ppm (Phakopsora pachyrhizi) of at least 80%. The pest or weed control at 200 ppm [3] was at least 80%.
`C/C(=N/OCc1ccc(-c2noc(C(F)(F)F)n2)cc1)N1CCOCC1` [Compound 4.3, (Z)-1-morpholino-N-[[4-[5-(trifluoromethyl)-1,2,4-oxadiazol-3-yl]phenyl]methoxy]ethanimine] showed a pest or weed control at 200 ppm [1] of at least 80%, an inhibition of growth at 20 ppm [2] of at least 80% and a pest or weed control at 200 ppm (Phakopsora pachyrhizi) of at least 80%.
